Results published in patent publication US8623871B2, “Substituted biaryl compounds for inflammation and immune-related uses” (Synta Pharmaceuticals Corp., priority 2006, dated 2014).
Where a name gives a salt, the structure may show the parent alone.

System: IL-2 production
Assay: Inhibition of IL-2 production in PHA-activated Jurkat cells (ELISA)
Format: cell-based
Conditions: Homo sapiens, 20 h, PHA 2.5 μg/mL, IL-2 ELISA
Protocol: Jurkat cells were placed in a 96 well plate (0.5 million cells per well in 1% FBS medium) then a test compound of this invention was added at different concentrations. After 10 minutes, the cells were activated with PHA (final concentration 2.5 μg/mL) and incubated for 20 hours at 37° C. under CO2. The final volume was 200 μL. Following incubation, the cells were centrifuged and the supernatants collected and stored at −70° C. prior to assaying for IL-2 production. A commercial ELISA kit (IL-2 Eli-pair, Diaclone Research, Besancon, France) was used to detect production of IL-2, from which dose response curves were obtained. The IC50 value was calculated as the concentration at which 50% of maximum IL-2 production after stimulation was inhibited versus a non-stimulation control.

| Compound | IC50 [nM] |
| --- | --- |
| Cc1ccc(-c2ncco2)cc1-c1ccc(NC(=O)[C@@H](N)C(C)C)cc1 (stereo in doubt) [Compound 123, 2-Amino-3-methyl-N-(2′-methyl-5′-oxazol-2-yl-biphenyl-4-yl)-butyramide] | > 500 |
| CC(=O)Nc1ccc(-c2cc(-c3ncco3)ccc2C)cc1 [Compound 1, N-(2′-Methyl-5′-oxazol-2-yl-biphenyl-4-yl)-acetamide] | > 500 |
| CCC(=O)Nc1ccc(-c2cc(-c3ncco3)ccc2C)cc1 [Compound 2, N-(2′-Methyl-5′-oxazol-2-yl-biphenyl-4-yl)-propionamide] | 50 to 100 |
| CCCC(=O)Nc1ccc(-c2cc(-c3ncco3)ccc2C)cc1 [Compound 3, N-(2′-Methyl-5′-oxazol-2-yl-biphenyl-4-yl)-butyramide] | < 20 |
| Cc1ccc(-c2ncco2)cc1-c1ccc(NC(=O)C(C)C)cc1 [Compound 4, N-(2′-Methyl-5′-oxazol-2-yl-biphenyl-4-yl)-isobutyramide] | < 20 |
| Cc1ccc(-c2ncco2)cc1-c1ccc(NC(=O)C2CC2)cc1 [Compound 5, Cyclopropanecarboxylic acid (2′-methyl-5′-oxazol-2-yl-biphenyl-4-yl)-amide] | 50 to 100 |
| Cc1ccc(-c2ncco2)cc1-c1ccc(NC(=O)C2CCCCN2C)cc1 (centres unmarked) [Compound 8, 1-Methyl-piperidine-2-carboxylic acid (2′-methyl-5′-oxazol-2-yl-biphenyl-4-yl)-amide] | 100 to 500 |
| CCC(C(=O)Nc1ccc(-c2cc(-c3ncco3)ccc2C)cc1)N(C)C (centres unmarked) [Compound 9, 2-Dimethylamino-N-(2′-methyl-5′-oxazol-2-yl-biphenyl-4-yl)-butyramide Hydrochloride] | > 500 |
| Cc1ccc(-c2ncco2)cc1-c1ccc(NC(=O)C(N)CC(C)C)cc1 (centres unmarked) [Compound 10, 2-Amino-4-methyl-pentanoic acid (2′-methyl-5′-oxazol-2-yl-biphenyl-4-yl)-amide] | > 500 |
| Cc1ccc(-c2ncco2)cc1-c1ccc(NC(=O)CN)cc1 [Compound 11, 2-Amino-N-(2′-methyl-5′-oxazol-2-yl-biphenyl-4-yl)-acetamide] | > 1000 |
| Cc1ccc(-c2ncco2)cc1-c1ccc(NC(=O)Cc2ccc(Cl)cc2)cc1 [Compound 35, 2-(4-Chloro-phenyl)-N-(2′-methyl-5′-oxazol-2-yl-biphenyl-4-yl)-acetamide] | 100 to 500 |
| Cc1ccc(-c2ncco2)cc1-c1ccc(NC(=O)/C=C/c2ccccc2)cc1 [Compound 48, N-(2′-Methyl-5′-oxazol-2-yl-biphenyl-4-yl)-3-phenyl-acrylamide] | 100 to 500 |
| Cc1ccc(-c2ncco2)cc1-c1ccc(NC(=S)Cc2ccc(F)cc2F)cc1 [Compound 124, 2-(2,4-Difluoro-phenyl)-N-(2′-methyl-5′-oxazol-2-yl-biphenyl-4-yl)-thioacetamide] | 50 to 100 |
| CCCCNCc1ccc(-c2cc(-c3ncco3)ccc2C)cc1 [Compound 135, N-((2′-methyl-5′-(oxazol-2-yl)biphenyl-4-yl)methyl)butan-1-amine] | > 1000 |
| C=CCNCc1ccc(-c2cc(-c3ncco3)ccc2C)cc1 [Compound 136, N-((2′-methyl-5′-(oxazol-2-yl)biphenyl-4-yl)methyl)prop-2-en-1-amine] | > 1000 |
| CCCNCc1ccc(-c2cc(-c3ncco3)ccc2C)cc1 [Compound 137, N-((2′-methyl-5′-(oxazol-2-yl)biphenyl-4-yl)methyl)propan-1-amine] | > 1000 |
| CCCCNc1ccc(-c2cc3c(cc2C)OCO3)cc1 [Compound 141, N-butyl-4-(6-methylbenzo[d][1,3]dioxol-5-yl)aniline] | 100 to 500 |
| CCCCNc1ccc(-c2cc(C(=O)OC)ccc2C)cc1 [Compound 142, methyl 4′-(butylamino)-6-methylbiphenyl-3-carboxylate] | 100 to 500 |
| Cc1ccc(-c2ncco2)cc1-c1ccc(NCC(C)C)cc1 [Compound 144, N-isobutyl-2′-methyl-5′-(oxazol-2-yl)biphenyl-4-amine] | 100 to 500 |
| Cc1ccc(-c2ncco2)cc1-c1ccc(NCCO)cc1 [Compound 145, 2-(2′-methyl-5′-(oxazol-2-yl)biphenyl-4-ylamino)ethanol] | > 1000 |
| Cc1ccc(-c2ncco2)cc1-c1ccc(NC(=O)N2CCN(C)CC2)cc1 [Compound 146, 4-Methyl-piperazine-1-carboxylic acid (2′-methyl-5′-oxazol-2-yl-biphenyl-4-yl)-amide] | > 1000 |
| CCOC(=O)CNc1ccc(-c2cc(-c3ncco3)ccc2C)cc1 [Compound 147, ethyl 2-(2′-methyl-5′-(oxazol-2-yl)biphenyl-4-ylamino)acetate] | > 1000 |

The next lines start with the values.

| IC50 [nM] | Compound |
| --- | --- |
| 20 to 50 | Cc1ccc(-c2ncco2)cc1-c1ccc(NC(=O)C2CCC2)cc1 [Compound 6, Cyclobutanecarboxylic acid (2′-methyl-5′-oxazol-2-yl-biphenyl-4-yl)-amide] |
| < 20 | Cc1ccc(-c2ncco2)cc1-c1ccc(NC(=O)C2CCCCC2)cc1 [Compound 106, N-(2′-methyl-5′-(oxazol-2-yl)biphenyl-4-yl)cyclohexanecarboxamide] |
| < 20 | O=C(Nc1ccc(-c2cc(C(F)(F)F)ccc2Cl)cc1)C1CCCCC1 [Compound 107, N-(2′-chloro-5′-(trifluoromethyl)biphenyl-4-yl)cyclohexanecarboxamide] |
| 20 to 50 | O=C(Nc1ccc(-c2cc(C(F)(F)F)ccc2Cl)cc1)C1CCCC1 [Compound 108, N-(2′-chloro-5′-(trifluoromethyl)biphenyl-4-yl)cyclopentanecarboxamide] |
| 100 to 500 | O=C(Nc1ccc(-c2cc(C(F)(F)F)ccc2Cl)cc1)C1CC1 [Compound 125, N-(2′-chloro-5′-(trifluoromethyl)biphenyl-4-yl)cyclopropanecarboxamide] |
| > 1000 | O=C(Nc1ccc(-c2cc(C(F)(F)F)ccc2Cl)cc1)C1CCCN1 (centres unmarked) [Compound 126, N-(2′-chloro-5′-(trifluoromethyl)biphenyl-4-yl)pyrrolidine-2-carboxamide] |
| 50 to 100 | O=C(Nc1ccc(-c2cc(C(F)(F)F)ccc2Cl)cc1)C1CC=CCC1 (centres unmarked) [Compound 127, N-(2′-chloro-5′-(trifluoromethyl)biphenyl-4-yl)cyclohex-3-enecarboxamide] |
| 100 to 500 | CC1CCCCC1C(=O)Nc1ccc(-c2cc(C(F)(F)F)ccc2Cl)cc1 (centres unmarked) [Compound 128, N-(2′-chloro-5′-(trifluoromethyl)biphenyl-4-yl)-2-methylcyclohexanecarboxamide] |
| > 1000 | O=C(Nc1ccc(-c2cc(C(F)(F)F)ccc2Cl)cc1)C1CCNCC1 [Compound 129, N-(2′-chloro-5′-(trifluoromethyl)biphenyl-4-yl)piperidine-4-carboxamide] |
| 100 to 500 | O=C(Nc1ccc(-c2cc(C(F)(F)F)ccc2Cl)cc1)C1CC2CCC1C2 (centres unmarked) [Compound 130, N-(2′-chloro-5′-(trifluoromethyl)biphenyl-4-yl)bicyclo[2.2.1]heptane-2-carboxamide] |
| > 500 | O=C(Nc1ccc(-c2cc(C(F)(F)F)ccc2Cl)cc1)C1CC2C=CC1C2 (centres unmarked) [Compound 132, N-(2′-chloro-5′-(trifluoromethyl)biphenyl-4-yl)bicyclo[2.2.1]hept-5-ene-2-carboxamide] |
| > 1000 | CN1CCC(C(=O)Nc2ccc(-c3cc(C(F)(F)F)ccc3Cl)cc2)CC1 [Compound 133, N-(2′-chloro-5′-(trifluoromethyl)biphenyl-4-yl)-1-methylpiperidine-4-carboxamide] |
| > 1000 | CN1CCCC1C(=O)Nc1ccc(-c2cc(C(F)(F)F)ccc2Cl)cc1 (centres unmarked) [Compound 134, N-(2′-chloro-5′-(trifluoromethyl)biphenyl-4-yl)-1-methylpyrrolidine-2-carboxamide] |
